This is an account of results in patent publication US9808470B2, “Estrogenic components for use in the treatment of neurological disorders” (UNIVERSITE DE LIEGE, priority 2012, dated 2017).

Assay [1] in a line: Ex.8 therapeutic HIE rat model: brain weight and brain-body weight ratio. The class given is in vivo. To be noted: 10 mg/kg/day E4, PND14, vs vehicle. On the procedure: All the compounds used for in vivo studies were dissolved in absolute Ethanol (ETOH) and further diluted in saline solution at a final concentration of ETOH 10%. An equal volume (5 μ1/g) of the solution was injected intraperitoneally (ip) into the pups from study groups. Rat pups from the vehicle group were ip injected a saline solution containing 10% ETOH. Rat pups from the Sham group were not injected at all.
To study the therapeutic effect of estetrol, newborn rat pups were assigned to one of the following 14 groups at postnatal day 7 (FIG. 23(B)): Sham group (n=12), Vehicle (n=15), 5 mg/kg/day E4 (n=11), 10 mg/kg/day E4 (n=11), 5 mg/kg/day E4+1.6 mg/kg/day PROG (n=11), 10 mg/kg/day E4+1.6 mg/kg/day PROG (n=11), 5 mg/kg/day E4+16 mg/kg/day PROG (n=11), 10 mg/kg/day E4+16 mg/kg/day PROG (n=13), 5 mg/kg/day E4+136 ng//kg/day E2 (n=11), 10 mg/kg/day E4+136 ng/kg/day E2 (n=11), 5 mg/kg/day E4+1.6 mg/kg/day PROG+136 ng/kg/day E2 (n=12), 10 mg/kg/day E4+1.6 mg/kg/day PROG+136 ng/kg/day E2 (n=11), 5 mg/kg/day E4+16 mg/kg/day PROG+136 ng/kg/day E2 (n=11), 10 mg/kg/day E4+16 mg/kg/day PROG+136 ng/kg/day (n=12) groups. […] After surgery, the pups were returned to their dams and allowed to recover for 1 hour. The pups were then placed in a humidified hypoxic in vivo cabinet (CoyLab). […]

For assay [2], the system named is intact cells in hippocampus and cortex. Briefly: Ex.4 therapeutic HIE rat model: intact cell counting. The assay is classed as in vivo. On the procedure: Paraformaldehyde-fixed paraffin embedded samples of the removed brains were coronally sectioned at the same level of the hippocampus region in accordance to the Paxinos rat brain atlas (Paxinos and Watson 2007. In: The rat brain in stereotaxic coordinates, 6th edition). Thickness of sections was 5 μm. Hematoxylin-eosin staining was performed. Briefly, sections were deparaffinized in xylene and rehydrated in graded ethanol concentrations before staining. Slides were stained with hematoxylin, rinsed for a few seconds in water, then placed in 1% eosin and washed, dehydrated, and coverslipped.
Intact cell counting was performed on hematoxylin-eosin-stained sections of the rat pups brains at magnification 400× in 3 fields of the respective brain area. Countings were performed in cortex and hippocampus (regions: dentate gyrus (DG), subgranular zone (SGZ), cornu ammonis (CA1, CA2/CA3)). The sections were analyzed with the aid of a microscope (Olympus BX51, Olympus, Tokyo, Japan), an image scanner (DotSlide Digital Virtual Microscopy, Olympus, Germany) and ImageJ software (NIH, US).
Intact cells are uninjured. Injured cells are characterized by a pale eosinophilic staining along with non-uniform nuclear densities-shrunken, condensed, or pale and enlarged.
To study the therapeutic effect of estetrol, newborn rat pups were assigned to one of the following 6 groups at postnatal day 7: sham group (n=29), vehicle group (n=20), 1 mg/kg E4 group (n=16), 5 mg/kg E4 group (n=19), 10 mg/kg day E4 (n=17) and 50 mg/kg day E4 group (n=15). At postnatal day 7 animals were anesthetized with isoflurane (induction, 3.0%; maintenance, 1.5%), and the rat pups from vehicle and E4 groups passed through surgery encompassing left common carotid artery double ligation and cut. After surgery, the pups were returned to their dams and allowed to recover for 1 hour. The pups were then placed in a humidified hypoxic in vivo cabinet (CoyLab). Hypoxia was produced by the inhalation of 11%-8% of oxygen balanced by nitrogen at decreased concentration of oxygen for 20 minutes, followed by inhalation of 8% oxygen and 92% nitrogen at constant concentration for 35 minutes. All the manipulations were performed at 37° C.
Upon retrieval from the hypoxia chamber the rat pups were injected intraperitoneally either by vehicle (vehicle group) or by E4 (1 mg/kg, 5 mg/kg, 10 mg/kg or 50 mg/kg) in accordance to the group assignment. The animals from the sham group went through similar procedures but proceeded neither left common carotid artery ligation and cut followed by hypoxia nor vehicle or estetrol administration. Rat pups recovered with their dams until being sacrificed at postnatal day 14.

As for `C[C@]12CC[C@@H]3c4ccc(O)cc4CC[C@H]3[C@@H]1[C@@H](O)[C@@H](O)[C@@H]2O` [E4, 1,3,5(10)-estratrien-3,15α,16α,17β-tetrol], the brain weight result in assay [1] is “significantly higher brain weight than the vehicle alone”. The “number of intact cells per visual field” value amounted to 51.5±2.5 in assay [2] (1 mg/kg E4 single ip dose after HI, CA1); 33.9±4.306 in assay [2] (1 mg/kg E4 single ip dose after HI, CA2/CA3); 42.4±4.865 in assay [2] (1 mg/kg E4 single ip dose after HI, cortex); 45.3±2.989 in assay [2] (5 mg/kg E4 single ip dose after HI, CA1); 33.8±4.704 in assay [2] (5 mg/kg E4 single ip dose after HI, CA2/CA3); 57.1±7.012 in assay [2] (5 mg/kg E4 single ip dose after HI, cortex). The “number of intact cells per visual field” value in assay [2] (10 mg/kg E4 single ip dose after HI, CA1) is given as 46.0±3.19; in assay [2] (10 mg/kg E4 single ip dose after HI, CA2/CA3), 35.2±3.169; in assay [2] (10 mg/kg E4 single ip dose after HI, cortex) it was 56.9±5.958; in assay [2] (50 mg/kg E4 single ip dose after HI, CA1) it was 46.6±5.336; in assay [2] (50 mg/kg E4 single ip dose after HI, CA2/CA3) it was 30.5±2.527; in assay [2] (50 mg/kg E4 single ip dose after HI, cortex), 54.5±3.403.
